In patent US10816552B2 (The Governing Council of the University of Toronto, priority 2014, dated 2020):

System: HCT116 cells
Assay: Mass cytometry hypoxia labelling (130Te signal)
Assay type: cell-based
From the text: FIGS. 4A-E show a schematic representation and density maps and plots. FIG. 4A is a schematic representation of Telox/Telox2 cell labelling for analysis via mass cytometry on a second-generation CyTOF instrument. FIG. 4b) is a density map of signal event length vs. ^130Te signal (arbitrary units). FIG. 4c) is a density plot output from the top-right gate in b) of ^193Ir signal (arbitrary units) vs. ^103Rh signal (arbitrary units). More than 93% of detected events fall in the square gate. FIG. 4d) is a density plot output from the bottom-left gate in b) of ^193Ir signal (arbitrary units) vs. ^103Rh signal (arbitrary units). More than 89% of detected events fall in the square gate. FIG. 4e) is a population histograms of cell ^130Te content (arbitrary units). Oxygen concentrations are listed as numerical percentages, P=Pimonidazole (100 μM). Blue and red histograms are Pimonidazole-negative controls. Orange and green histograms are Pimonidazole- positive competition experiments. Note: warmer colors in density plots indicate higher cell population density.
FIGS. 8A and B show a) the absolute ^130Te signal as a function of concentration as determined by mass cytometry analysis of HCT116 cells incubated with the exemplary compound, Telox-2, for 3 hours in either near-anoxic (˜0% O2), hypoxic (˜1% O2) or normoxic (21% O2) atmosphere; and b) the signal-to-noise (fold-change) representation of the data presented in part a.
FIGS. 9A-D show a) Absolute ^130Te signal as a function of time as determined by mass cytometry analysis of HCT116 cells incubated with 10 μM of the exemplary compound,Telox-2 (constant exposure), in either near-anoxic (˜0% O2), hypoxic (˜1% O2) or normoxic (21% O2) atmosphere; b) the signal-to-noise (fold-change) representation of the data presented in part a; and c) the absolute ^130Te signal as a function of time as determined by mass cytometry analysis of HCT116 cells incubated with 10 μM Telox-2 for 3 hours followed by replacement of Telox-2-containing media with fresh media in either near-anoxic (˜0% O2), hypoxic (˜1% O2) or normoxic (21% O2) atmosphere; and d) the signal-to-noise (fold-change) representation of the data presented in part c.
HCT116 (500,000) cells were seeded in 60 mm plastic petri dishes (Corning Inc., NY) and incubated for 24 h at 37° C., 21% O2/5% CO2. The cells were transferred to hypoxia chambers (H35/H85 hypoxia workstation, Don Whitley Scientific) maintained at 1%/0.2% or <0.02% O2 for 3 h. Hypoxia experiments (<0.02% O2) were performed by seeding the cells in 60 mm glass plates (Corning Inc., NY).
HCT 116 cells (see sections i and ii) were incubated in media containing Telox or Telox2 (100 μM, added as a neat solution in sterile DMSO; final [DMSO]=0.1%) for 3 hours under atmosphere containing an appropriate concentration of O2. Following incubation, the media was removed, cells were washed with sterile PBS, and then separated from the incubation plate via trypsinization (37° C., 10 min) and gentle scraping. The cell suspension was pelleted and resuspended in PBS containing β-ME (1.0 mL, 100 mM). Cells were pelleted, resuspended in PBS (900 μL, no β-ME), and fixed with formaldehyde (100 μL, 37% solution) for 25 minutes. Following fixation, cells were pelleted, resuspended in PBS containing β-ME (1.0 mL, 100 mM), and pelleted once again. Cells were then resuspended in PBS ([…], no β-ME) and incubated with either the Ir-containing nucleic acid intercalator (hypoxic cells) or the Rh containing nucleic acid intercalator (normoxic cells) (10 μL, 100 μM solution in sterile PBS) for 20 minutes. Cells were then pelleted and resuspended in PBS (1.0 mL, no β-ME) twice. Cell pellets were then resuspended in PBS containing ^151/153EU beads (1/10 dilution of CyTOF® calibration beads, DVS Sciences, 1.0-2.5 mL depending on pellet size). The two cells samples were then combined (250 μL of each) and 250 μL of the resultant sample was injected onto a second-generation CyTOF® instrument for MC analysis. […]

In the case of `O=[N+]([O-])c1nccn1CCc1ccc[te]1` [Telox-2, 2-nitro-1-(2-(tellurophen-2-yl)ethyl)-1H-imidazole], the “signal-to-noise vs incubation time, constant exposure” value (HCT116, 10 μM, near-anoxic and moderately hypoxic vs normoxic control) is reported as “enhanced as incubation time increases”, the “signal-to-noise under moderately hypoxic conditions vs near-anoxic” value (HCT116, 1% O2) is reported as “significantly lower” and the “loss of probe-protein conjugates after pulsed exposure” value (HCT116, 3 hours exposure then fresh media up to additional 21 hours) is reported as “exponential-type decay”. For the same compound, the “optimal probe concentration to maximize signal-to-noise” value (HCT116, 3 hours, normoxic vs near-anoxic) was 10 µM.
